Source: paper PMC11585353, “Metatranscriptomics-guided discovery and characterization of a polyphenol-metabolizing gut microbial enzyme” (Cell host & microbe, 2024)

Tested on: T1, Gp Hcdh (Unk-9; G. pamelaeae HCA dehydroxylase)
T1 construct: native untagged enzyme purified from G. pamelaeae 3C grown with HCA (ammonium sulfate, HIC, AEC, SEC); two subunits; catalytic subunit 770 aa; one Mo per protein (bis-MGD); with Hydrocaffeic acid dehydroxylase accessory subunit
Experiment: continuous spectrophotometric assay, methyl viologen oxidation at […] nm, Michaelis-Menten fit of initial rates
Format: biochemical, Gordonibacter pamelaeae
Conditions: 100 nM enzyme, anaerobic, 50 mM MOPS pH 7.0, 300 mM NaCl, 200 uM methyl viologen, 100 uM sodium dithionite, HCA 0.0625-4 mM

- Km: 240 µM
SMILES: O=C(O)CCc1ccc(O)c(O)c1 [HCA, 3,4-dihydroxyhydrocinnamic acid]
